# From article PMC11151065, “Boosted Enzyme Activity via Encapsulation within Metal–Organic Frameworks with Pores Matching Enzyme Size and Shape” (Advanced Science, 2024)
# Biological target: T1, cytochrome c (Cyt c) (Bos taurus, UniProt P62894)
# T1 construct: gene CYCS; native holoprotein from cow heart (Sigma-Aldrich), free in solution
# Experiment: absorbance of ABTS radical cation at […] nm
# Type: biochemical
# Conditions: free enzyme; peroxidase activity with H2O2 co-substrate; room temperature
# T1 sequence (P62894 2-105): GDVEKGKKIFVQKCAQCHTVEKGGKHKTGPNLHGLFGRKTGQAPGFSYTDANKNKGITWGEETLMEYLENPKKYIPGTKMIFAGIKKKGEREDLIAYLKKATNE
smiles,measurement,value
"CCn1c(=NN=c2sc3cc(S(=O)(=O)O)ccc3n2CC)sc2cc(S(=O)(=O)O)ccc21 [ABTS, 2,2′‐azino‐bis (3‐ethylbenzothiazoline‐6‐sulfonic acid)]",absorbance of ABTS radical cation at 415 nm,peroxidase catalytic properties of Cyt c were utilized to oxidize ABTS to ABTS▪^+
